# According to patent US4593093A, “Acyl derivatives” (priority 1980, dated 1986):
# Counter-ions that a name gives are not always drawn. Like-named read-outs stand apart in the source and are kept apart here.
# Experiments:
# Escherichia coli [1] = test: Activity in vitro: minimum inhibitory concentration; format: cell-based
# Proteus mirabilis = test: as above; format: cell-based
# Proteus morganii = test: as above; format: cell-based; conditions: Morganella morganii
# Proteus rettgeri = test: as above; format: cell-based; conditions: Providencia rettgeri
# Proteus inconstans = test: as above; format: cell-based; conditions: Providencia alcalifaciens
# Proteus vulgaris = test: as above; format: cell-based
# Klebsiella pseumoniae = test: as above; format: cell-based
# Serratia marcescens [2] = test: as above; format: cell-based
# Enterobacter cloacae [3] = test: as above; format: cell-based
# Enterobacter aerogenes = test: as above; format: cell-based; conditions: Klebsiella aerogenes
# Citrobacter freundii = test: as above; format: cell-based
# Pseudomonas aeruginosa [4] = test: as above; format: cell-based
# Staphylococcus aureus = test: as above; format: cell-based
# Staphylococcus epidermis = test: as above; format: cell-based
# Streptococcus faecalis = test: as above; format: cell-based; conditions: Enterococcus faecalis
# Streptococcus pyogenes [5] = test: as above; format: cell-based
# Streptococcus pneumoniae = test: as above; format: cell-based
# Streptococcus viridans = test: as above; format: cell-based
# Enterobacter cloacae [6] = test: Activity in vivo: survival of intraperitoneally infected mice; conditions: sc, 96 h; mice infected i.p. with Enterobacter cloacae; s.c. twice, 1 h and 3 h after infection; survival on 4th day; read-out: CD50 (dosage at which 50% of the animals survive)
# Protocol: (§1) Groups of 5 mice are infected intraperitoneally with an aqueous suspension of various pathogens. The test substance in physiological sodium chloride solution is administered subcutaneously twice, i.e. 1 hour and 3 hours after the infection. The number of surviving animals is determined on the 4th day. Various dosages are administered and that dosage at which 50% of the experimental animals survive (CD50, mg/kg) is determined by interpolation.
# Escherichia coli [7] = test: as above; conditions: sc, 96 h; mice infected i.p. with Escherichia coli; s.c. twice, 1 h and 3 h after infection; survival on 4th day; read-out: CD50 (dosage at which 50% of the animals survive)
# Protocol: as §1
# Haemophilus influenzae = test: as above; conditions: sc, 96 h; mice infected i.p. with Haemophilus influenzae; s.c. twice, 1 h and 3 h after infection; survival on 4th day; read-out: CD50 (dosage at which 50% of the animals survive)
# Protocol: as §1
# Serratia marcescens [8] = test: as above; conditions: sc, 96 h, mice infected i.p. with Serratia marcescens strain 1, s.c. twice, 1 h and 3 h after infection, survival on 4th day, read-out: CD50 (dosage at which 50% of the animals survive)
# Protocol: as §1
# Streptococcus pyogenes [9] = test: as above; conditions: sc, 96 h; mice infected i.p. with Streptococcus pyogenes; s.c. twice, 1 h and 3 h after infection; survival on 4th day; read-out: CD50 (dosage at which 50% of the animals survive)
# Protocol: as §1
# Pseudomonas aeruginosa [10] = test: as above; conditions: sc, 96 h; mice infected i.p. with Pseudomonas aeruginosa; s.c. three times, 1 h, 3 h and 5 h after infection; survival on 4th day; read-out: CD50 (dosage at which 50% of the animals survive)
# Protocol: as §1
# *Administered subcutaneously three times: 1 hour, 3 hours and 5 hours
# Toxicity, LD50 = conditions: in vivo
# Klebsiella pneumoniae = test: Activity in vivo: survival of intraperitoneally infected mice; conditions: sc, 96 h; mice infected i.p. with Klebsiella pneumoniae; s.c. twice, 1 h and 3 h after infection; survival on 4th day; read-out: CD50 (dosage at which 50% of the animals survive)
# Protocol: as §1
# Neisseria moningitidis = test: as above; conditions: sc, 96 h; mice infected i.p. with Neisseria moningitidis; s.c. twice, 1 h and 4 h after infection; survival on 4th day; read-out: CD50 (dosage at which 50% of the animals survive)
# Protocol: as §1
# **Administered subcutaneously twice: 1 hour and 4 hours after the […]
# [11] = Enterobacter aerogenes strain 1
# [12] = Enterobacter aerogenes strain 2
# [13] = Pseudomonas aeruginosa strain 1
# [14] = Pseudomonas aeruginosa strain 2
# [15] = Pseudomonas aeruginosa strain 3
# [16] = Streptococcus faecalis strain 1
# [17] = Streptococcus faecalis strain 2
# [18] = Streptococcus pyogenes strain 1, read-out: Minimum inhibitory concentration
# [19] = Streptococcus pyogenes strain 2, read-out: Minimum inhibitory concentration
smiles,measurement,setting,value
"CO/N=C(\C(=O)N[C@@H]1C(=O)N2C(C(=O)O)=C(CSc3nnc(C)s3)CS[C@H]12)c1c[se]c(N)n1 [Product B, (6R, 7R)-7-[2-)2-amino-4-selenazolyl)-2-[(Z)-methoxyimino]-acetamido]-3-[[(5-methyl-1,3,4-thiadiazol-2-yl)thio]methyl]-8-oxo-5-thia-1-azabicyclo[4.2.0]oct-2-ene-2-carboxylic acid sodium salt]",MIC,Escherichia coli [1]; Escherichia coli strain 1,0.2 µg/mL
same,MIC,Escherichia coli [1]; Escherichia coli strain 2,0.006 µg/mL
same,MIC,Escherichia coli [1]; Escherichia coli strain 3,0.8 µg/mL
same,MIC,Escherichia coli [1]; Escherichia coli strain 4,0.2 µg/mL
same,MIC,Escherichia coli [1]; Escherichia coli strain 5,0.4 µg/mL
same,MIC,Proteus mirabilis; Proteus mirabilis strain 1,0.19 µg/mL
same,MIC,Proteus mirabilis; Proteus mirabilis strain 2,0.19 µg/mL
same,MIC,Proteus mirabilis; Proteus mirabilis strain 3,0.2 µg/mL
same,MIC,Proteus mirabilis; Proteus mirabilis strain 4,0.4 µg/mL
same,MIC,Proteus mirabilis; Proteus mirabilis strain 5,0.4 µg/mL
same,MIC,Proteus morganii,0.05 µg/mL
same,MIC,Proteus rettgeri,0.2 µg/mL
same,MIC,Proteus inconstans,0.025 µg/mL
same,MIC,Proteus vulgaris,0.78 µg/mL
same,MIC,Klebsiella pseumoniae; Klebsiella pseumoniae strain 1,0.4 µg/mL
same,MIC,Klebsiella pseumoniae; Klebsiella pseumoniae strain 2,0.1 µg/mL
same,MIC,Klebsiella pseumoniae; Klebsiella pseumoniae strain 3,0.2 µg/mL
same,MIC,Serratia marcescens [2]; Serratia marcescens strain 1,0.8 µg/mL
same,MIC,Serratia marcescens [2]; Serratia marcescens strain 2,1.6 µg/mL
same,MIC,Serratia marcescens [2]; Serratia marcescens strain 3,0.2 µg/mL
same,MIC,Enterobacter cloacae [3]; Enterobacter cloacae strain 1,> 100 µg/mL
same,MIC,Enterobacter cloacae [3]; Enterobacter cloacae strain 2,1.6 µg/mL
same,MIC,Enterobacter cloacae [3]; Enterobacter cloacae strain 3,50 µg/mL
same,MIC,Enterobacter aerogenes; [11],0.1 µg/mL
same,MIC,Enterobacter aerogenes; [12],0.1 µg/mL
same,MIC,Citrobacter freundii; Citrobacter freundii strain 1,1.6 µg/mL
same,MIC,Citrobacter freundii; Citrobacter freundii strain 2,0.2 µg/mL
same,MIC,Pseudomonas aeruginosa [4]; [13],50 µg/mL
same,MIC,Pseudomonas aeruginosa [4]; [14],25 µg/mL
same,MIC,Pseudomonas aeruginosa [4]; [15],6.3 µg/mL
same,MIC,Staphylococcus aureus; Staphylococcus aureus strain 1,0.8 µg/mL
same,MIC,Staphylococcus aureus; Staphylococcus aureus strain 2,1.6 µg/mL
same,MIC,Staphylococcus aureus; Staphylococcus aureus strain 3,0.8 µg/mL
same,MIC,Staphylococcus aureus; Staphylococcus aureus strain 4,1.6 µg/mL
same,MIC,Staphylococcus epidermis,0.8 µg/mL
same,MIC,Streptococcus faecalis; [16],100 µg/mL
same,MIC,Streptococcus faecalis; [17],100 µg/mL
same,MIC,Streptococcus pyogenes [5]; [18],0.025 µg/mL
same,MIC,Streptococcus pyogenes [5]; [19],≤ 0.012 µg/mL
same,MIC,Streptococcus pneumoniae,0.025 µg/mL
same,MIC,Streptococcus viridans,0.8 µg/mL
same,ED50,Enterobacter cloacae [6],> 12 mg/kg
same,ED50,Escherichia coli [7],0.006 mg/kg
same,ED50,Haemophilus influenzae,0.27 mg/kg
same,ED50,Serratia marcescens [8],0.52 mg/kg
same,ED50,Streptococcus pyogenes [9],0.05 mg/kg
same,ED50,Pseudomonas aeruginosa [10],134 mg/kg
same,LD50,"Toxicity, LD50; po",> 5000 mg/kg
same,LD50,"Toxicity, LD50; sc",> 4000 mg/kg
"CO/N=C(\C(=O)N[C@@H]1C(=O)N2C(C(=O)O)=C(CSc3nc(=O)c(O)nn3C)CS[C@H]12)c1c[se]c(N)n1 [Product C, (6R, 7R)-7-[2-(2-amino-4-selenazolyl)-2-[(Z)-methoxyimino]-acetamido]-3-[[(2,5-dihydro-6-hydroxy-2-methyl-5-oxo-as-triazin-3-yl)thio]methyl]-8-oxo-5-thia-1-azabicyclo[4.2.0]oct-2-ene-2-carboxylic acid disodium salt]",MIC,Escherichia coli [1]; Escherichia coli strain 1,0.1 µg/mL
same,MIC,Escherichia coli [1]; Escherichia coli strain 2,0.05 µg/mL
same,MIC,Escherichia coli [1]; Escherichia coli strain 3,0.8 µg/mL
same,MIC,Escherichia coli [1]; Escherichia coli strain 4,0.4 µg/mL
same,MIC,Escherichia coli [1]; Escherichia coli strain 5,0.2 µg/mL
same,MIC,Proteus mirabilis; Proteus mirabilis strain 1,0.012 µg/mL
same,MIC,Proteus mirabilis; Proteus mirabilis strain 2,0.025 µg/mL
same,MIC,Proteus mirabilis; Proteus mirabilis strain 3,1.6 µg/mL
same,MIC,Proteus mirabilis; Proteus mirabilis strain 4,0.012 µg/mL
same,MIC,Proteus mirabilis; Proteus mirabilis strain 5,0.012 µg/mL
same,MIC,Proteus morganii,0.05 µg/mL
same,MIC,Proteus rettgeri,0.1 µg/mL
same,MIC,Proteus inconstans,0.006 µg/mL
same,MIC,Proteus vulgaris,1.6 µg/mL
same,MIC,Klebsiella pseumoniae; Klebsiella pseumoniae strain 1,0.1 µg/mL
same,MIC,Klebsiella pseumoniae; Klebsiella pseumoniae strain 2,0.05 µg/mL
same,MIC,Klebsiella pseumoniae; Klebsiella pseumoniae strain 3,0.1 µg/mL
same,MIC,Serratia marcescens [2]; Serratia marcescens strain 1,0.4 µg/mL
same,MIC,Serratia marcescens [2]; Serratia marcescens strain 2,1.6 µg/mL
same,MIC,Serratia marcescens [2]; Serratia marcescens strain 3,0.1 µg/mL
same,MIC,Enterobacter cloacae [3]; Enterobacter cloacae strain 1,> 100 µg/mL
same,MIC,Enterobacter cloacae [3]; Enterobacter cloacae strain 2,3.1 µg/mL
same,MIC,Enterobacter cloacae [3]; Enterobacter cloacae strain 3,> 100 µg/mL
same,MIC,Enterobacter aerogenes; [11],0.1 µg/mL
same,MIC,Enterobacter aerogenes; [12],0.1 µg/mL
same,MIC,Citrobacter freundii; Citrobacter freundii strain 1,12.5 µg/mL
same,MIC,Citrobacter freundii; Citrobacter freundii strain 2,0.1 µg/mL
same,MIC,Pseudomonas aeruginosa [4]; [13],3.1 µg/mL
same,MIC,Pseudomonas aeruginosa [4]; [14],6.3 µg/mL
same,MIC,Pseudomonas aeruginosa [4]; [15],1.6 µg/mL
same,MIC,Staphylococcus aureus; Staphylococcus aureus strain 1,3.1 µg/mL
same,MIC,Staphylococcus aureus; Staphylococcus aureus strain 2,6.3 µg/mL
same,MIC,Staphylococcus aureus; Staphylococcus aureus strain 3,3.1 µg/mL
same,MIC,Staphylococcus aureus; Staphylococcus aureus strain 4,6.3 µg/mL
same,MIC,Staphylococcus epidermis,3.1 µg/mL
same,MIC,Streptococcus faecalis; [16],> 100 µg/mL
same,MIC,Streptococcus faecalis; [17],> 100 µg/mL
same,MIC,Streptococcus pyogenes [5]; [18],0.05 µg/mL
same,MIC,Streptococcus pyogenes [5]; [19],≤ 0.012 µg/mL
same,MIC,Streptococcus pneumoniae,0.05 µg/mL
same,MIC,Streptococcus viridans,3.1 µg/mL
same,ED50,Enterobacter cloacae [6],17 mg/kg
same,ED50,Escherichia coli [7],< 0.003 mg/kg
same,ED50,Haemophilus influenzae,< 0.05 mg/kg
same,ED50,Klebsiella pneumoniae,0.23 mg/kg
same,ED50,Serratia marcescens [8],0.07 mg/kg
same,ED50,Streptococcus pyogenes [9],0.04 mg/kg
same,ED50,Pseudomonas aeruginosa [10],14 mg/kg
same,ED50,Neisseria moningitidis,< 0.05 mg/kg
same,LD50,"Toxicity, LD50; po",> 5000 mg/kg
same,LD50,"Toxicity, LD50; sc",> 4000 mg/kg
